{
  "source": "patent US12637459B2",
  "about": "“Solid state forms of Lorecivivint” (TAPI CZECH INDUSTRIES S.R.O., priority 2020, dated 2026)",
  "key": {"[1]": {"experiment": "Polymorphic stability at up to 100% relative humidity at room temperature", "format": "physicochemical"}, "[2]": {"experiment": "Hygroscopicity of the crystalline form", "format": "physicochemical", "settings": "solid state form"}},
  "data": [
    {"smiles": "CC(C)CC(=O)Nc1cncc(-c2ccc3[nH]nc(-c4nc5c(-c6cccc(F)c6)cncc5[nH]4)c3c2)c1", "note": "[Form Q, N-[5-[3-[7-(3-fluorophenyl)-3H-imidazo[4,5-c]pyridin-2-yl]-1H-indazol-5-yl]pyridin-3-yl]-3-methylbutanamide]", "values": [
      {"measurement": "time polymorphically stable", "setting": "[1]", "value": "at least 7 days"},
      {"measurement": "hygroscopicity", "setting": "[2]", "value": "non-hygroscopic"}
    ]}
  ]
}
